Assay in all cases: CDK inhibition assay (microfluidic LabChip, IC50 format)
Test [1] deals with T1, CDK9-CYCLINT1 (Homo sapiens, UniProt P50750).
T1 construct: purchased Carna
In kind it is biochemical. The note with it: Table 4a; read-out: CDK9 CyclinT1 IC50.

Test [2] addresses CDK7 CyclinH (Homo sapiens, UniProt P50613). In kind it is biochemical. The following applies: Table 4a.
For test [3], the target named is T2, CDK2-CYCLINA (Homo sapiens, UniProt P24941).
T2 construct: purchased Millipore
The test is classed as biochemical. The note with it: Table 4a; read-out: CDK2 CyclinA IC50.

The target in test [4] is T3, CDK6-CYCLIND3 (Homo sapiens, UniProt Q00534).
T3 construct: purchased Carna
The test is classed as biochemical. The note with it: read-out: CDK6 CyclinD3 IC50.

In test [5] the target is CDK4-CYCLIND1 (Homo sapiens, UniProt P11802). The following applies: a second value in parentheses for some compounds.
Where [6] appears, read: CDK4 CyclinD1 IC50, Table 4b, lower part.

The term IC50 denotes the point on the concentration scale where inhibition reaches its midpoint.

Read-outs that look alike come from different tables or passages of the source.

T3 sequence (Q00534 whole entry): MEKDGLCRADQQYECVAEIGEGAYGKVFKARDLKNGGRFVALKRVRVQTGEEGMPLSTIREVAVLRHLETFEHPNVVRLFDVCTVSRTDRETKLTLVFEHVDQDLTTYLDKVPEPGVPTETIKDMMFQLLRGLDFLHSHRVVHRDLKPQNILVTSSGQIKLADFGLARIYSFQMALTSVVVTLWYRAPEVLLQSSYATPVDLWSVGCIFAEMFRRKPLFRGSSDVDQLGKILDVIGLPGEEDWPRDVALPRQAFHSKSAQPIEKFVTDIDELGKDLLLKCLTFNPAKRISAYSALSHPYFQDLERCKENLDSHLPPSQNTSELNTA
T3 sequence (P30281 whole entry partner): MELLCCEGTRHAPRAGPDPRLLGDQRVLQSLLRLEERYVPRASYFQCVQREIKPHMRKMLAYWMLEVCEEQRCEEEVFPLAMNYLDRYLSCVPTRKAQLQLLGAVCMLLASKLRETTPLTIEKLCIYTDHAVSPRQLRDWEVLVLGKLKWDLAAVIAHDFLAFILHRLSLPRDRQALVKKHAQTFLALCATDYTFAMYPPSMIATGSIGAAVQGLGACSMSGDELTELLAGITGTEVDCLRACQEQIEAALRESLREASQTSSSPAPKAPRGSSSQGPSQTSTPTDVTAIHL
Chain of CDK7 CyclinH (P50613 whole entry): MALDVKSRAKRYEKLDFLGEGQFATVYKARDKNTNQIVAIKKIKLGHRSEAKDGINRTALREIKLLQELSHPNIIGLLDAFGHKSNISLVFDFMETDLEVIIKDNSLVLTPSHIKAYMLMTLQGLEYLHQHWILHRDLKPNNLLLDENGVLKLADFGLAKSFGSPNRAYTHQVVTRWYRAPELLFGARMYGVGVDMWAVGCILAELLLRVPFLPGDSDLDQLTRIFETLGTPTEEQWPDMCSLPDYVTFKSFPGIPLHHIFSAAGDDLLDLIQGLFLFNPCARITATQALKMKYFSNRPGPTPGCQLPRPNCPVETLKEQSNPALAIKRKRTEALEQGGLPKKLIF
Chain of CDK7 CyclinH (P51946 whole entry partner): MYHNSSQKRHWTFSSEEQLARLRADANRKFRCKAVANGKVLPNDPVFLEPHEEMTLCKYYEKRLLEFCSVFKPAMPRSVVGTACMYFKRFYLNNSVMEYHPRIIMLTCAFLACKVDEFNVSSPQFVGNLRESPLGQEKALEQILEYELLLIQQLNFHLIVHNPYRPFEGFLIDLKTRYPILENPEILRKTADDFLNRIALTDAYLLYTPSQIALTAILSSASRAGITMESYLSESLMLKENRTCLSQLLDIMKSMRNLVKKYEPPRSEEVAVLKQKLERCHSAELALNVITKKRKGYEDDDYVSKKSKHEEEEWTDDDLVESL
Chain of CDK7 CyclinH (P51948 whole entry partner): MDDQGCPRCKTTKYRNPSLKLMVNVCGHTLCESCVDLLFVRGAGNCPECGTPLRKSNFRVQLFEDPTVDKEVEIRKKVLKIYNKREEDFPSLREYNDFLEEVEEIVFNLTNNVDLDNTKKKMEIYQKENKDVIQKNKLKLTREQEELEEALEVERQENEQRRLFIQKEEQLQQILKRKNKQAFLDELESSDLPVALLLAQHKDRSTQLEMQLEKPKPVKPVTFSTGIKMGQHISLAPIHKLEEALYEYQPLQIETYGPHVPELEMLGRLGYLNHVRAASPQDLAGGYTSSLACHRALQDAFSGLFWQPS
Chain of CDK4-CYCLIND1 (P11802 whole entry): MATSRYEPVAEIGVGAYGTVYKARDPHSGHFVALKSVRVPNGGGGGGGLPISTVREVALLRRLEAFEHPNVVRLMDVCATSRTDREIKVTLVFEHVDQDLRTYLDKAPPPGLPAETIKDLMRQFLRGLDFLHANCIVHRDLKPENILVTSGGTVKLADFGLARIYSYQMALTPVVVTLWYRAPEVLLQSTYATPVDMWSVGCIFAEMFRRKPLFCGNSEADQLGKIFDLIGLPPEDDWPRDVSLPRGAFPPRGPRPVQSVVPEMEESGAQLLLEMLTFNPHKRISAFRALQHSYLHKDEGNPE
Chain of CDK4-CYCLIND1 (P24385 whole entry partner): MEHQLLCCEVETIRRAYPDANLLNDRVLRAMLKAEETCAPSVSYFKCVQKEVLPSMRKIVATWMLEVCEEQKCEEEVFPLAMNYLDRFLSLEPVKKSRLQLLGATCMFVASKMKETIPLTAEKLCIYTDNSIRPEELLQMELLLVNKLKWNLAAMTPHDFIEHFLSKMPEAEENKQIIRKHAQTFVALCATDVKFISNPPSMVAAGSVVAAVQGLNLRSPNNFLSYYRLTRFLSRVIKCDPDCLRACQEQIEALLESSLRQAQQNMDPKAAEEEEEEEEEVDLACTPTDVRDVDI
T1 sequence (P50750 whole entry): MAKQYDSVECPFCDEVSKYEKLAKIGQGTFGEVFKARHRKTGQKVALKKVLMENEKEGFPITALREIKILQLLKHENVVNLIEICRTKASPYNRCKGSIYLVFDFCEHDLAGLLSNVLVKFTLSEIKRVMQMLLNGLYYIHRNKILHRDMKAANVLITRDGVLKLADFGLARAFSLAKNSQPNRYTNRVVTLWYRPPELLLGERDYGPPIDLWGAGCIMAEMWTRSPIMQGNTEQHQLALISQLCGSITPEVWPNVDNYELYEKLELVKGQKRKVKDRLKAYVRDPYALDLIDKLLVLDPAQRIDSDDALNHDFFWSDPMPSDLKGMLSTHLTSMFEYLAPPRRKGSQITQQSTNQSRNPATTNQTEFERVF
T1 sequence (O60563 whole entry partner): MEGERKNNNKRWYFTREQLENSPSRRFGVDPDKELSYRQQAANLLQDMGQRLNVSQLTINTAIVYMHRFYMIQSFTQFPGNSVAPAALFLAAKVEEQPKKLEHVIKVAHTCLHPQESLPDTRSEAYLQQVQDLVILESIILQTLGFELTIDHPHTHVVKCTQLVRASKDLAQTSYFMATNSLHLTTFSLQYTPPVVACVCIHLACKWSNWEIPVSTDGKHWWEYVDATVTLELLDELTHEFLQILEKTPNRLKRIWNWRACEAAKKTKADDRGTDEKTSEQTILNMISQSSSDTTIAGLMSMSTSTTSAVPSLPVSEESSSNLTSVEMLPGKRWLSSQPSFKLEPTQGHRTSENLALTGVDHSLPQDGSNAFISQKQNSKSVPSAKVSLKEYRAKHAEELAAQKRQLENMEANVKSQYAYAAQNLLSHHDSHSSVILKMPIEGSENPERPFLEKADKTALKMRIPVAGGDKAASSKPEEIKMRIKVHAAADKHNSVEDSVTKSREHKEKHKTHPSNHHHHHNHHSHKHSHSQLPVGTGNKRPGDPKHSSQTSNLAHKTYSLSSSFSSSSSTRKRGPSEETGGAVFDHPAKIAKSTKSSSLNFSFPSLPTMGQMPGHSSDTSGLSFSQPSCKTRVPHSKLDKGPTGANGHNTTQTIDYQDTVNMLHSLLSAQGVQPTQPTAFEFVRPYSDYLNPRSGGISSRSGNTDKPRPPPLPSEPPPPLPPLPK

On to `CN1CCN(c2ccc(Nc3ncc4c(n3)N(C3CCCC3)C(=O)[C@]3(CCNC3=O)C4)c(F)c2)CC1` [Example D147, (S)-8-cyclopentyl-2-((2-fluoro-4-(4-methylpiperazin-1-yl)phenyl)amino)-5,8-dihydro-7H-spiro[pyrido[2,3-d]pyrimidine-6,3′-pyrrolidine]-2′,7-dione], for which the IC50 in test [1] was found to be 518 nM; in test [2] it was 4260 nM; in test [3], 951 nM; in test [4] (Table 4a), 188 nM; in test [5] (CDK4 CyclinD1 IC50, Table 4a), 73.2 nM.

With `O=C1NCC[C@@]12Cc1cnc(Nc3ccc(N4CCNCC4)nc3)nc1N(C1CCCC1)C2=O` [Example D149, (S)-8-cyclopentyl-2-((6-(piperazin-1-yl)pyridin-3-yl)amino)-5,8-dihydro-7H-spiro[pyrido[2,3-d]pyrimidine-6,3′-pyrrolidine]-2′,7-dione], the IC50 in test [1] was 7.52 nM; in test [2] it was 340 nM; in test [3], 35.6 nM; in test [4] (Table 4a) it was 2.82 nM; in test [5] (CDK4 CyclinD1 IC50, Table 4a) it was 1.22 nM.

As for `CN1CCN(c2ccc(Nc3ncc4c(n3)N(C3CCCC3)C(=O)[C@]3(CCNC3=O)C4)cn2)CC1` [Example D150, (S)-8-cyclopentyl-2-((6-(4-methylpiperazin-1-yl)pyridin-3-yl)amino)-5,8-dihydro-7H-spiro[pyrido[2,3-d]pyrimidine-6,3′-pyrrolidine]-2′,7-dione], the IC50 in test [1] worked out at 6.86 nM; in test [2] it was 402 nM; in test [3], 52.9 nM; in test [4] (Table 4a), 2.34 nM; in test [5] (CDK4 CyclinD1 IC50, Table 4a), 1.16 nM.

`CC(C)N1CCN(c2ccc(Nc3ncc4c(n3)N(C3CCCC3)C(=O)[C@]3(CCNC3=O)C4)cn2)CC1` [Example D151, (S)-8-cyclopentyl-2-((6-(4-isopropylpiperazin-1-yl)pyridin-3-yl)amino)-5,8-dihydro-7H-spiro[pyrido[2,3-d]pyrimidine-6,3′-pyrrolidine]-2′,7-dione]: the IC50 in test [4] (Table 4b, lower part) was 2.8 nM; in test [5] (setting [6]), 1.75 nM.

As to `O=C1NCC[C@@]12Cc1cnc(Nc3ccc(N4CCNCC4)cn3)nc1N(C1CCCC1)C2=O` [Example D152, (S)-8-cyclopentyl-2-((5-(piperazin-1-yl)pyridin-2-yl)amino)-5,8-dihydro-7H-spiro[pyrido[2,3-d]pyrimidine-6,3′-pyrrolidine]-2′,7-dione], the IC50 in test [1] came to 120 nM; in test [2], 19000 nM; in test [3], 1710 nM; in test [4] (Table 4a), 1.64 nM; in test [5] (CDK4 CyclinD1 IC50, Table 4a), 1.18 nM.

For the compound `CN1CCN(c2ccc(Nc3ncc4c(n3)N(C3CCCC3)C(=O)[C@]3(CCNC3=O)C4)nc2)CC1` [Example D153, (S)-8-cyclopentyl-2-((5-(4-methylpiperazin-1-yl)pyridin-2-yl)amino)-5,8-dihydro-7H-spiro[pyrido[2,3-d]pyrimidine-6,3′-pyrrolidine]-2′,7-dione], the IC50 turned out to be 316 nM in test [1]; 18400 nM in test [2]; 2440 nM in test [3]; 3.62 nM in test [4] (Table 4a); 2.94 nM in test [5] (CDK4 CyclinD1 IC50, Table 4a).

Regarding `CCN1CCN(Cc2ccc(Nc3ncc4c(n3)N(C3CCCC3)C(=O)[C@]3(CCNC3=O)C4)nc2)CC1` [Example D155, (S)-8-cyclopentyl-2-((5-((4-ethylpiperazin-1-yl)methyl)pyridin-2-yl)amino)-5,8-dihydro-7H-spiro[pyrido[2,3-d]pyrimidine-6,3′-pyrrolidine]-2′,7-dione], the IC50 worked out at 1180 nM in test [1]; 14700 nM in test [2]; 3440 nM in test [3]; 8.58 nM in test [4] (Table 4a); 6.22 nM in test [5] (CDK4 CyclinD1 IC50, Table 4a).

As for `Cc1cc(Nc2ncc3c(n2)N(C2CCCC2)C(=O)[C@]2(CCNC2=O)C3)ccc1N1CCNCC1` [Example D156, (S)-8-cyclopentyl-2-((3-methyl-4-(piperazin-1-yl)phenyl)amino)-5,8-dihydro-7H-spiro[pyrido[2,3-d]pyrimidine-6,3′-pyrrolidine]-2′,7-dione], the IC50 in test [1] was found to be 3.91 nM; in test [2], 166 nM; in test [3], 19.8 nM; in test [4] (Table 4a) it was 2.3 nM; in test [5] (CDK4 CyclinD1 IC50, Table 4a) it was 0.92 nM.

On to `Cc1cc(Nc2ncc3c(n2)N(C2CCCC2)C(=O)[C@]2(CCNC2=O)C3)ccc1N1CCN(C)CC1` [Example D157, (S)-8-cyclopentyl-2-((3-methyl-4-(4-methylpiperazin-1-yl)phenyl)amino)-5,8-dihydro-7H-spiro[pyrido[2,3-d]pyrimidine-6,3′-pyrrolidine]-2′,7-dione], for which the IC50 is 3.67 nM in test [1]; 164 nM in test [2]; 18.3 nM in test [3]; 1.51 nM in test [4] (Table 4a); 0.908 nM in test [5] (CDK4 CyclinD1 IC50, Table 4a).

With `COc1cc(Nc2ncc3c(n2)N(C2CCCC2)C(=O)[C@]2(CCNC2=O)C3)ccc1N1CCNCC1` [Example D159, (S)-8-cyclopentyl-2-((3-methoxy-4-(piperazin-1-yl)phenyl)amino)-5,8-dihydro-7H-spiro[pyrido[2,3-d]pyrimidine-6,3′-pyrrolidine]-2′,7-dione], the IC50 came to 7.34 nM in test [1]; 318 nM in test [2]; 35 nM in test [3]; 4.47 nM in test [4] (Table 4a); 1.62 nM in test [5] (CDK4 CyclinD1 IC50, Table 4a).

Regarding `COc1cc(N2CCN(C)CC2)ccc1Nc1ncc2c(n1)N(C1CCCC1)C(=O)[C@]1(CCNC1=O)C2` [Example D166, (S)-8-cyclopentyl-2-((2-methoxy-4-(4-methylpiperazin-1-yl)phenyl)amino)-5,8-dihydro-7H-spiro[pyrido[2,3-d]pyrimidine-6,3′-pyrrolidine]-2′,7-dione], the IC50 in test [1] came out at 307 nM; in test [2] it was 13900 nM; in test [3], 1860 nM; in test [4] (Table 4a), 79.2 nM.

Take `O=C1NCC[C@@]12Cc1cnc(Nc3ccc(-c4cn[nH]c4)cc3)nc1N(C1CCCC1)C2=O` [Example D168, (S)-2-((4-(1H-pyrazol-4-yl)phenyl)amino)-8-cyclopentyl-5,8-dihydro-7H-spiro[pyrido[2,3-d]pyrimidine-6,3′-pyrrolidine]-2′,7-dione]: the IC50 in test [1] stood at 6.52 nM; in test [2], 3100 nM; in test [3], 55.4 nM; in test [4] (Table 4a), 30 nM.

Turning to `Cn1cc(-c2ccc(Nc3ncc4c(n3)N(C3CCCC3)C(=O)[C@]3(CCNC3=O)C4)cc2)cn1` [Example D169, (S)-8-cyclopentyl-2-((4-(1-methyl-1H-pyrazol-4-yl)phenyl)amino)-5,8-dihydro-7H-spiro[pyrido[2,3-d]pyrimidine-6,3′-pyrrolidine]-2′,7-dione], the IC50 came to 2.92 nM in test [1], 2820 nM in test [2], 33.5 nM in test [3] and 9.37 nM in test [4] (Table 4a).

As to `O=C1NCC[C@@]12Cc1cnc(Nc3ccc(OCCN4CCCC4)nc3)nc1N(C1CCCC1)C2=O` [Example D191, (S)-8-cyclopentyl-2-((6-(2-(pyrrolidin-1-yl)ethoxy)pyridin-3-yl)amino)-5,8-dihydro-7H-spiro[pyrido[2,3-d]pyrimidine-6,3′-pyrrolidine]-2′,7-dione], the IC50 in test [4] (Table 4b, lower part) was 11.2 nM; in test [5] (setting [6]), 6.27 nM.

`O=C1NCC[C@@]12Cc1cnc(Nc3ccc(OCCN4CCCCC4)nc3)nc1N(C1CCCC1)C2=O` [Example D192, (S)-8-cyclopentyl-2-((6-(2-(piperidin-1-yl)ethoxy)pyridin-3-yl)amino)-5,8-dihydro-7H-spiro[pyrido[2,3-d]pyrimidine-6,3′-pyrrolidine]-2′,7-dione]: the IC50 in test [4] (Table 4b, lower part) is 8.52 nM; in test [5] (setting [6]), 4.58 nM.

For `O=C1NCC[C@@]12Cc1cnc(Nc3ccc(N4CCC(N5CCOCC5)CC4)nc3)nc1N(C1CCCC1)C2=O` [Example D193, (S)-8-cyclopentyl-2-((6-(4-morpholinopiperidin-1-yl)pyridin-3-yl)amino)-5,8-dihydro-7H-spiro[pyrido[2,3-d]pyrimidine-6,3′-pyrrolidine]-2′,7-dione], the IC50 in test [4] (Table 4b, lower part) was 2.32 nM; in test [5] (setting [6]), 1.54 nM.

Consider `CC(C)N1CCN(c2ccc(Nc3ncc4c(n3)N(C35CC(C3)C5)C(=O)[C@]3(CCNC3=O)C4)cc2F)CC1` [Example D194, (S)-8-(bicyclo[1.1.1]pentan-1-yl)-2-((3-fluoro-4-(4-isopropylpiperazin-1-yl)phenyl)amino)-5,8-dihydro-7H-spiro[pyrido[2,3-d]pyrimidine-6,3′-pyrrolidine]-2′,7-dione], for which the IC50 in test [4] (Table 4b, lower part) came to 31.2 nM; in test [5] (setting [6]) it was 17.4 nM.

Turning to `CC(C)n1cc(-c2ccc(Nc3ncc4c(n3)N(C3CCCC3)C(=O)[C@]3(CCNC3=O)C4)cc2)cn1` [Example D195, (S)-8-cyclopentyl-2-((4-(1-isopropyl-1H-pyrazol-4-yl)phenyl)amino)-5,8-dihydro-7H-spiro[pyrido[2,3-d]pyrimidine-6,3′-pyrrolidine]-2′,7-dione], the IC50 worked out at 33.7 nM in test [4] (Table 4b, lower part) and 23 nM in test [5] (setting [6]).

Turning to `O=C1NCC[C@]12Cc1cnc(Nc3ccc(N4CCNCC4)c(F)c3)nc1N(C13CC(C1)C3)C2=O` [Example D196, (R)-8-(bicyclo[1.1.1]pentan-1-yl)-2-((3-fluoro-4-(piperazin-1-yl)phenyl)amino)-5,8-dihydro-7H-spiro[pyrido[2,3-d]pyrimidine-6,3′-pyrrolidine]-2′,7-dione], the IC50 in test [4] (Table 4b, lower part) worked out at 2400 nM; in test [5] (setting [6]), 1250 nM.

For the compound `CN1CCN(c2ccc(Nc3ncc4c(n3)N(C35CC(C3)C5)C(=O)[C@@]3(CCNC3=O)C4)cc2F)CC1` [Example D197, (R)-8-(bicyclo[1.1.1]pentan-1-yl)-2-((3-fluoro-4-(4-methylpiperazin-1-yl)phenyl)amino)-5,8-dihydro-7H-spiro[pyrido[2,3-d]pyrimidine-6,3′-pyrrolidine]-2′,7-dione], the IC50 in test [4] (Table 4b, lower part) came out at 5380 nM; in test [5] (setting [6]), 2220 nM.

The record behind these values is patent publication US20230048132A1, “CYCLIN-DEPENDENT KINASE INHIBITORS” (SPV THERAPEUTICS INC., priority 2018, published 2023).
